# Data: patent publication US20260092076A1, “NOVEL COMPOUNDS” (Hoffmann-La Roche Inc., priority 2023, published 2026)
# How the values were obtained:
# NLRP3 [1] = molecular target: T1, NLRP3 (Homo sapiens, UniProt Q96P20); assay: THP-1 cells pyroptosis assay; format: cell-based; parameters: Seed THP-1 cells (25,000 cells/well) containing 1.0 μg/ml LPS in 40 μl of RPMI medium; host or cells: THP-1 cells, LPS-primed, nigericin-stimulated; conditions: THP-1 cells with 1.0 μg/ml LPS, compound 3 hours, nigericin 5 μM 1 hr, resazurin readout
# T1 sequence (Q96P20 whole entry): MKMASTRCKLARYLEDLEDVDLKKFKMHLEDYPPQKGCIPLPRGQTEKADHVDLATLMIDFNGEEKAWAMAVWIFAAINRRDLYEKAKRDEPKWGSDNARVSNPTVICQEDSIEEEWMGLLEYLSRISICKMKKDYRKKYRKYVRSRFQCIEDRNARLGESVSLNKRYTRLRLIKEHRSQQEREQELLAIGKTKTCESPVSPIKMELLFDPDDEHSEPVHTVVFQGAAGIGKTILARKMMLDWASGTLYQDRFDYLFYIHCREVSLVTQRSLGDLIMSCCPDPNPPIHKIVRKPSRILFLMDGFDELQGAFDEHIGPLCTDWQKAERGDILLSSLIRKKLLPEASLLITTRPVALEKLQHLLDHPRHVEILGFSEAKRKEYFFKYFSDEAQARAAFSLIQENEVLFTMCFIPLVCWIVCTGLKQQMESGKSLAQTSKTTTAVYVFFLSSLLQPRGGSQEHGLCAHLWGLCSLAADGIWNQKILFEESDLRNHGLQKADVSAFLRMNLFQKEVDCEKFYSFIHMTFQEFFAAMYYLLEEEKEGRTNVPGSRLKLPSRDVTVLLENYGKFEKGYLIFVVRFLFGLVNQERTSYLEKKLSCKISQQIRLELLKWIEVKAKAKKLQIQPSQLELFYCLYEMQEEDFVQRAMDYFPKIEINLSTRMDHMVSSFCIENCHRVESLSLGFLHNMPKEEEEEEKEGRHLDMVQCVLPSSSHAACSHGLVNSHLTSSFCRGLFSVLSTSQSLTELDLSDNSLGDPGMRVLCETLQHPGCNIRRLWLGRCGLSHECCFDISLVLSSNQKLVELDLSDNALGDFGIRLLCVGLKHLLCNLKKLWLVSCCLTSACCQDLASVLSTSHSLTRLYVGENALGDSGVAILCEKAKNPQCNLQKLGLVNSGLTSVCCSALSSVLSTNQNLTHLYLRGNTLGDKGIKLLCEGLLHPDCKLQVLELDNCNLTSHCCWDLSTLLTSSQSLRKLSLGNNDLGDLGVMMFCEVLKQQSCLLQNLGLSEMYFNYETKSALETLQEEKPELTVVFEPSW
# Description: THP-1 cells (ATCC #TIB-202) were grown in RPMI containing L-glutamine (Gibco #11835) supplemented with 1 mM sodium pyruvate (Sigma #S8636) and penicillin (100 units/ml)/streptomycin (0.1 mg/ml) (Sigma #P4333) in 10% Fetal Bovine Serum (FBS) (Sigma #F0804). The cells were routinely passaged and grown to confluency (˜10^6 cells/ml). On the day of the experiment, THP-1 cells were harvested and resuspended into RPMI medium (without FBS). The cells were then counted and viability (>90%) checked by Trypan blue (Sigma #T8154). Appropriate dilutions were made to give a concentration of 625,000 cells/ml. To this diluted cell solution was added LPS (Sigma #L4524) to give a 1 μg/ml Final Assay Concentration (FAC). 40 μl of the final preparation was aliquoted into each well of a 96-well plate. The plate thus prepared was used for compound screening.
# The following method step-by-step assay was followed for compound screening. • Seed THP-1 cells (25,000 cells/well) containing 1.0 μg/ml LPS in 40 μl of RPMI medium (without FBS) in 96-well, black walled, clear bottom cell culture plates coated with poly-D-lysine (VWR #734-0317) • Add 5 μl compound (8 points half-log dilution, with 10 μM top dose) or vehicle (DMSO 0.1% FAC) to the appropriate wells • Incubate for 3 hours at 37° C., 5% CO2 • Add 5 μl nigericin (Sigma #N7143) (FAC 5 μM) to all wells • Incubate for 1 hr at 37° C., 5% CO2 • At the end of the incubation period, spin plates at 300×g for 3 mins and remove supernatant • Then add 50 μl of resazurin (Sigma #R7017) (FAC 100 μM resazurin in RPMI medium without FBS) and incubate plates for a further 1-2 hours at 37° C. and 5% CO2 • Plates were read in an Envision reader at Ex 560 nm and Em 590 nm • IC50 data is fitted to a non-linear regression equation (log inhibitor vs response-variable slope 4-parameters)
# NLRP3 [2] = molecular target: T1, NLRP3; assay: Human whole blood IL-1β release assay; format: cell-based; conditions: human whole blood with 1 μg/ml LPS, compound 3 hours, nigericin 10 μM 1 hr, IL-1β by AlphaLisa
# Description: For systemic delivery, the ability to inhibit NLRP3 when the compounds are present within the bloodstream is of great importance. For this reason, the NLRP3 inhibitory activity of a number of compounds in human whole blood was investigated in accordance with the following protocol. • Human whole blood in Li-heparin tubes was obtained from healthy donors from a volunteer donor panel. • Plate out 80 μl of whole blood containing 1 μg/ml of LPS in 96-well, clear bottom cell culture plate (Corning #3585) • Add 10 μl compound (8 points half-log dilution with 10 μM top dose) or vehicle (DMSO 0.1% FAC) to the appropriate wells • Incubate for 3 hours at 37° C., 5% CO2 • Add 10 μl nigericin (Sigma #N7143) (10 μM FAC) to all wells • Incubate for 1 hr at 37° C., 5% CO2 • At the end of the incubation period, spin plates at 300×g for 5 mins to pellet cells and remove 20 μl of supernatant and add to 96-well v-bottom plates for IL-1β analysis (note: these plates containing the supernatants can be stored at −80° C. to be analysed at a later date) • IL-1β was measured according to the manufacturer protocol (Perkin Elmer-AlphaLisa IL-1 Kit AL220F-5000) • IC50 data is fitted to a non-linear regression equation (log inhibitor vs response-variable slope 4-parameters)
Structure (SMILES),IC50 (NLRP3 [1]) [nM],IC50 (NLRP3 [2]) [nM]
"Cc1cc(C(F)(F)F)cc(O)c1-c1ccc2oc(N3Cc4[nH]c(=O)[nH]c(=O)c4C3)nc2n1 [Example 44, 6-[5-[2-Hydroxy-6-methyl-4-(trifluoromethyl)phenyl]oxazolo[4,5-b]pyridin-2-yl]-5,7-dihydro-1H-pyrrolo[3,4-d]pyrimidine-2,4-dione]",245,–
"Cc1cc(Cl)cc(O)c1-c1ccc2oc(N3CCc4[nH]c(=O)ncc4C3)nc2n1 [Example 36, 6-[5-(4-Chloro-2-hydroxy-6-methyl-phenyl)oxazolo[4,5-b]pyridin-2-yl]-1,5,7,8-tetrahydropyrido[4,3-d]pyrimidin-2-one]",46.3,168
"Cc1cc(C#N)cc(O)c1-c1ccc2oc(N3Cc4ccccc4C3)nc2n1 [Example 16, 3-Hydroxy-4-(2-isoindolin-2-yloxazolo[4,5-b]pyridin-5-yl)-5-methyl-benzonitrile]",66,–
"Cc1cc(Cl)cc(O)c1-c1ccc2oc(N3Cc4ccc5c(c4C3)OCO5)nc2n1 [Example 42, 5-Chloro-2-(2-(6,8-dihydro-7H-[1,3]dioxolo[4,5-e]isoindol-7-yl)oxazolo[4,5-b]pyridin-5-yl)-3-methylphenol]",144,–
"Cc1cc(Cl)cc(O)c1-c1ccc2oc(N3CCc4nccnc4C3)nc2n1 [Example 40, 5-Chloro-2-[2-(7,8-dihydro-5H-pyrido[3,4-b]pyrazin-6-yl)oxazolo[4,5-b]pyridin-5-yl]-3-methyl-phenol]",71.6,–
"Cc1cc(Cl)cc(O)c1-c1ccc2oc(N3CCc4ccc(F)cc4C3)nc2n1 [Example 35, 5-Chloro-2-[2-(7-fluoro-3,4-dihydro-1H-isoquinolin-2-yl)oxazolo[4,5-b]pyridin-5-yl]-3-methyl-phenol]",236,–
"COc1cccc2c1CCN(c1nc3nc(-c4c(C)cc(Cl)cc4O)ccc3o1)C2 [Example 34, 5-chloro-2-[2-(5-methoxy-3,4-dihydro-1H-isoquinolin-2-yl)oxazolo[4,5-b]pyridin-5-yl]-3-methyl-phenol]",675,–
"Cc1cc(Cl)cc(O)c1-c1ccc2oc(N3Cc4ccccc4C3)nc2n1 [Example 6, 5-Chloro-2-(2-isoindolin-2-yloxazolo[4,5-b]pyridin-5-yl)-3-methyl-phenol]",90,–
"Cc1cc(C(F)(F)F)cc(O)c1-c1ccc2oc(N3Cc4nccnc4C3)nc2n1 [Example 23, 2-[2-(5,7-Dihydropyrrolo[3,4-b]pyrazin-6-yl)oxazolo[4,5-b]pyridin-5-yl]-3-methyl-5-(trifluoromethyl)phenol]",–,3720
"Cc1cc(C(F)(F)F)cc(O)c1-c1ccc2oc(N3CCc4nc[nH]c(=O)c4C3)nc2n1 [Example 41, 6-[5-[2-Hydroxy-6-methyl-4-(trifluoromethyl)phenyl]oxazolo[4,5-b]pyridin-2-yl]-3,5,7,8-tetrahydropyrido[4,3-d]pyrimidin-4-one]",174,–
"Cc1cc(Cl)cc(O)c1-c1ccc2oc(N3Cc4cccc(F)c4C3)nc2n1 [Example 9, 5-Chloro-2-[2-(4-fluoroisoindolin-2-yl)oxazolo[4,5-b]pyridin-5-yl]-3-methyl-phenol]",263,–
"Cc1cc(Cl)cc(O)c1-c1ccc2oc(N3Cc4ccc(O)cc4C3)nc2n1 [Example 8, 2-[5-(4-Chloro-2-hydroxy-6-methyl-phenyl)oxazolo[4,5-b]pyridin-2-yl]isoindolin-5-ol]",69.9,–
"Cc1cc(Cl)cc(O)c1-c1ccc2oc(N3CCc4c(C#N)cccc4C3)nc2n1 [Example 33, 2-(5-(4-Chloro-2-hydroxy-6-methylphenyl)oxazolo[4,5-b]pyridin-2-yl)-1,2,3,4-tetrahydroisoquinoline-5-carbonitrile]",447,–

# The remaining compounds from weak to strong by IC50 (NLRP3 [1]), led by results:
IC50 (NLRP3 [1]) [nM],IC50 (NLRP3 [2]) [nM],Structure (SMILES)
29,2230,"Cc1cc(C#N)cc(O)c1-c1ccc2oc(N3Cc4ccncc4C3)nc2n1 [Example 10, 4-[2-(1,3-Dihydropyrrolo[3,4-c]pyridin-2-yl)oxazolo[4,5-b]pyridin-5-yl]-3-hydroxy-5-methyl-benzonitrile]"
27.1,225,"Cc1ncc2c(n1)CCN(c1nc3nc(-c4c(C)cc(Cl)cc4O)ccc3o1)C2 [Example 11, 5-Chloro-3-methyl-2-[2-(2-methyl-7,8-dihydro-5H-pyrido[4,3-d]pyrimidin-6-yl)oxazolo[4,5-b]pyridin-5-yl]phenol]"
24.9,285,"COc1ncc2c(n1)CCN(c1nc3nc(-c4c(C)cc(Cl)cc4O)ccc3o1)C2 [Example 32, 5-Chloro-2-[2-(2-methoxy-7,8-dihydro-5H-pyrido[4,3-d]pyrimidin-6-yl)oxazolo[4,5-b]pyridin-5-yl]-3-methyl-phenol]"
22.3,1960,"Cc1cc(C(F)(F)F)cc(O)c1-c1ccc2oc(N3Cc4ccc(=O)n(C)c4C3)nc2n1 [Example 21, 6-[5-[2-Hydroxy-6-methyl-4-(trifluoromethyl)phenyl]oxazolo[4,5-b]pyridin-2-yl]-1-methyl-5,7-dihydropyrrolo[3,4-b]pyridin-2-one]"
20.7,≥ 10000,"Cc1cc(C(F)(F)F)cc(O)c1-c1ccc2oc(N3Cc4cc(=O)n(C)nc4C3)nc2n1 [Example 22, 6-[5-[2-Hydroxy-6-methyl-4-(trifluoromethyl)phenyl]oxazolo[4,5-b]pyridin-2-yl]-2-methyl-5,7-dihydropyrrolo[3,4-c]pyridazin-3-one]"
17.9,345,"Cc1cc(Cl)cc(O)c1-c1ccc2oc(N3CCc4ncncc4C3)nc2n1 [Example 31, 5-Chloro-2-[2-(7,8-dihydro-5H-pyrido[4,3-d]pyrimidin-6-yl)oxazolo[4,5-b]pyridin-5-yl]-3-methyl-phenol]"
11.1,962,"Cc1cc(C(F)(F)F)cc(O)c1-c1ccc2oc(N3CCc4cc(=O)[nH]cc4C3)nc2n1 [Example 19, 7-[5-[2-Hydroxy-6-methyl-4-(trifluoromethyl)phenyl]oxazolo[4,5-b]pyridin-2-yl]-2,5,6,8-tetrahydro-2,7-naphthyridin-3-one]"
10.5,173,"Cc1cc(Cl)cc(O)c1-c1ccc2oc(N3CCc4ccncc4C3)nc2n1 [Example 15, 5-Chloro-2-[2-(3,4-dihydro-1H-2,7-naphthyridin-2-yl)oxazolo[4,5-b]pyridin-5-yl]-3-methyl-phenol]"
7.7,117,"Cc1cc(C#N)cc(O)c1-c1ccc2oc(N3Cc4c[nH]c(=O)cc4C3)nc2n1 [Example 3, 3-Hydroxy-5-methyl-4-[2-(6-oxo-3,5-dihydro-1H-pyrrolo[3,4-c]pyridin-2-yl)oxazolo[4,5-b]pyridin-5-yl]benzonitrile]"
2.6,151,"Cc1cc(C(F)(F)F)cc(O)c1-c1ccc2oc(N3Cc4cc(=O)n(CCO)cc4C3)nc2n1 [Example 5, 5-(2-Hydroxyethyl)-2-[5-[2-hydroxy-6-methyl-4-(trifluoromethyl)phenyl]oxazolo[4,5-b]pyridin-2-yl]-1,3-dihydropyrrolo[3,4-c]pyridin-6-one]"
2.1,35.9,"Cc1cc(Cl)cc(O)c1-c1cnc2oc(N3Cc4ccncc4C3)nc2n1 [Example 29, 5-Chloro-2-[2-(1,3-dihydropyrrolo[3,4-c]pyridin-2-yl)oxazolo[4,5-b]pyrazin-5-yl]-3-methyl-phenol; formic acid]"
1.7,128,"Cc1cc(C(F)(F)F)cc(O)c1-c1cnc2oc(N3Cc4cnc(O)cc4C3)nc2n1 [Example 43, 2-[5-[2-Hydroxy-6-methyl-4-(trifluoromethyl)phenyl]oxazolo[4,5-b]pyrazin-2-yl]-1,3-dihydropyrrolo[3,4-c]pyridin-6-ol; 2,2,2-trifluoroacetic acid]"
